Measured values: paper PMC11564096, “Structural and mechanistic insights into Streptococcus pneumoniae NADPH oxidase” (Nature Structural & Molecular Biology, 2024)

Columns and labels:
[1] = target: T1, SpNOX (Streptococcus pneumoniae NOX) (Streptococcus pneumoniae, UniProt Q8CZ28); format: binding; settings: substrate-free, 1 mM FAD added; DH domain FAD site
T1 construct: gene spr0531; residues 2-400, N-terminal 6xHis-PreScission tag cleaved, E. coli C41(DE3), LMNG micelles, monomer, 46 kDa, two b-type hemes and FAD
T1 sequence (Q8CZ28 2-400): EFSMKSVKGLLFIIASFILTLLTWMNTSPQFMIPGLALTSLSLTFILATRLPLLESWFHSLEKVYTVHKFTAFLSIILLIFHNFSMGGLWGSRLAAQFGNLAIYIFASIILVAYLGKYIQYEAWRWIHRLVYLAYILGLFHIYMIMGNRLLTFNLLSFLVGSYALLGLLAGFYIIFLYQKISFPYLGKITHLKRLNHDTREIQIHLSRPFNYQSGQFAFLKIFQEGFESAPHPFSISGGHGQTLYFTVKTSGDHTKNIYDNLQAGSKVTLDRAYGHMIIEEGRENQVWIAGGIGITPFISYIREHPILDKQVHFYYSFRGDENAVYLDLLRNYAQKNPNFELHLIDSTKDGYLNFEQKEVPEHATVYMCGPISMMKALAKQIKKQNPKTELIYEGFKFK

[2] = target: T1, SpNOX (Streptococcus pneumoniae NOX); experiment: cytochrome c reduction assay, absorbance at […] nm; format: biochemical; settings: 100 µM bovine cytochrome c, 0.1 µM SpNOX, 1 µM FAD, 50 mM Tris pH 7.0, 250 mM NaCl, room temperature, aerobic; read-out: apparent KM

SMILES	cryo-EM structure, 2.29 Å [1]	Km [2] [µM]
Cc1cc2nc3c(=O)[nH]c(=O)nc-3n(C[C@H](O)[C@H](O)[C@H](O)COP(=O)(O)OP(=O)(O)OC[C@H]3O[C@@H](n4cnc5c(N)ncnc54)[C@H](O)[C@@H]3O)c2cc1C [FAD]	A clear density for FAD was well resolved in all maps	–
NC(=O)C1=CN([C@@H]2O[C@H](COP(=O)(O)OP(=O)(O)OC[C@H]3O[C@@H](n4cnc5c(N)ncnc54)[C@H](OP(=O)(O)O)[C@@H]3O)[C@@H](O)[C@H]2O)C=CC1 [NADPH]	–	7.59
